The values below come from patent publication US20250346585A1 (Alexion Pharmaceuticals, Inc., priority 2022, published 2025).

Chain of Human complement C1s enzyme (P09871 438-688 limits assumed): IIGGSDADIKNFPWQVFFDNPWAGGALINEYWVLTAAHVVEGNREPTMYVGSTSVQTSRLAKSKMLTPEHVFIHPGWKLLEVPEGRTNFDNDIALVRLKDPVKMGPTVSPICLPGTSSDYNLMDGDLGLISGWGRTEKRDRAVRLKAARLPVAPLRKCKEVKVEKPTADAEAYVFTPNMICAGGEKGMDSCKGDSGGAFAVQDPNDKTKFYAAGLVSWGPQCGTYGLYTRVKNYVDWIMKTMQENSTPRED
Chain of Human complement C1s enzyme (P09871 16-437 partner limits assumed): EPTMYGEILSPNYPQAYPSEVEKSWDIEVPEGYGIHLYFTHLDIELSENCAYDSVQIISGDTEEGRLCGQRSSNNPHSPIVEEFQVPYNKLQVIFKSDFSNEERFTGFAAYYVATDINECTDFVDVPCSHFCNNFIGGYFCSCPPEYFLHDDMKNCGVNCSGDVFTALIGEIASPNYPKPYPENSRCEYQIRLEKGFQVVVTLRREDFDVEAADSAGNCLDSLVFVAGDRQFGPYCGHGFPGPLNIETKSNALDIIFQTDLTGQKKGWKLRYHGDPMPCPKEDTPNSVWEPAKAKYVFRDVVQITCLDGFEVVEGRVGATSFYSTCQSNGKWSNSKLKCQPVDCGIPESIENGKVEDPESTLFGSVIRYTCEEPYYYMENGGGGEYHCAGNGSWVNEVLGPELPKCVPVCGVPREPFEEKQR

The target of this assay is Human complement C1s enzyme (Homo sapiens (Human), UniProt P09871). Description: Human C1s enzyme assay. The format is biochemical. The settings on record: Human complement C1s enzyme 1.16 nM, substrate Z-L-Lys-SBzl 100 μM, assay of Example 3; read-out: IC50 (Stars). The procedure, abridged:
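IC50 derived by nonlinear regression of rate versus concentration, with rate taken from A405 kinetics (30 s intervals, 30 min) after adding 100 μM each Z-L-Lys-SBzl and DTNB. C1s from human serum, 1.16 nM, exposed to compound for 5 min at RT beforehand; buffer 50 mM Tris, 1 M NaCl, pH 7.5.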
For the compound `Nc1csc(CNC(=O)[C@@H]2CC3(CN2C(=O)CNC(=O)c2ccc(Oc4ccc(F)cc4)cc2)OCCO3)c1` [Compound 244, (S)—N-((4-aminothiophen-2-yl)methyl)-7-((4-(4-fluorophenoxy)benzoyl)glycyl)-1,4-dioxa-7-azaspiro[4.4]nonane-8-carboxamide], the IC50 was more than 1000 nM.
Regarding `N=C(N)c1csc(CNC(=O)[C@@H]2CC3(CN2C(=O)CN2CCc4cc(-c5ccc(F)cc5F)ccc4C2=O)OCCO3)c1` [Compound 245, (S)—N-((4-carbamimidoylthiophen-2-yl)methyl)-7-(2-(6-(2,4-difluorophenyl)-1-oxo-3,4-dihydroisoquinolin-2(1H)-yl)acetyl)-1,4-dioxa-7-azaspiro[4.4]nonane-8-carboxamide], the IC50 was less than 100 nM.
Take `COC(=O)/N=C(/N)c1csc([C@@H](C)NC(=O)[C@@H]2C[C@@H](OC(F)F)CN2C(=O)CNC(=O)c2ccc3c(c2)-c2ccccc2C3(F)F)c1` [Compound 247, methyl ((E)-amino(5-((R)-1-((2S,4R)-1-((9,9-difluoro-9H-fluorene-3-carbonyl)glycyl)-4-(difluoromethoxy)pyrrolidine-2-carboxamido)ethyl)thiophen-3-yl)methylene)carbamate]: the IC50 is less than 100 nM.
For the compound `C[C@@H](NC(=O)[C@@H]1C[C@@H](Oc2ccccc2)CN1C(=O)CNC(=O)c1ccc2oc3ccccc3c2c1)c1cc(C(=N)N)cs1` [Compound 248, (2S,4R)—N—((R)-1-(4-carbamimidoylthiophen-2-yl)ethyl)-1-((dibenzo[b,d]furan-2-carbonyl)glycyl)-4-phenoxypyrrolidine-2-carboxamide], the IC50 was less than 100 nM.
For `CCCCCCOC(=O)/N=C(/N)c1csc([C@@H](C)NC(=O)[C@@H]2C[C@](F)(COC)CN2C(=O)CNC(=O)c2ccc3c(c2)-c2ccccc2C3(F)F)c1` [Compound 249, hexyl ((E)-amino(5-((R)-1-((2S,4R)-1-((9,9-difluoro-9H-fluorene-3-carbonyl)glycyl)-4-fluoro-4-(methoxymethyl)pyrrolidine-2-carboxamido)ethyl)thiophen-3-yl)methylene)carbamate] the value was less than 100 nM; for `COC(=O)/N=C(/N)c1csc([C@@H](C)NC(=O)[C@@H]2C[C@](F)(CF)CN2C(=O)CNC(=O)c2ccc3c(c2)-c2ccccc2C3(F)F)c1` [Compound 250, methyl ((E)-amino(5-((R)-1-((2S,4R)-1-((9,9-difluoro-9H-fluorene-3-carbonyl)glycyl)-4-fluoro-4-(fluoromethyl)pyrrolidine-2-carboxamido)ethyl)thiophen-3-yl)methylene)carbamate], less than 100 nM; for `N=C(N)c1csc(CCNC(=O)[C@@H]2CC3(CN2C(=O)CNC(=O)c2ccc4c(c2)-c2ccccc2C4(F)F)OCCO3)c1` [Compound 251, (S)—N-(2-(4-carbamimidoylthiophen-2-yl)ethyl)-7-((9,9-difluoro-9H-fluorene-3-carbonyl)glycyl)-1,4-dioxa-7-azaspiro[4.4]nonane-8-carboxamide], less than 100 nM.
With `C[C@@H](NC(=O)[C@@H]1C[C@@H]([S@@](C)(=N)=O)CN1C(=O)CNC(=O)c1ccc2c(c1)-c1ccccc1C2(F)F)c1cc(C(=N)N)cs1` [Compound 252, (2S,4R)—N—((R)-1-(4-carbamimidoylthiophen-2-yl)ethyl)-1-((9,9-difluoro-9H-fluorene-3-carbonyl)glycyl)-4-((S)—S-methylsulfonimidoyl)pyrrolidine-2-carboxamide], the IC50 was less than 100 nM.
For the compound `CCCCCCOC(=O)/N=C(/N)c1csc([C@@H](C)NC(=O)[C@@H]2C[C@](F)(CF)CN2C(=O)CNC(=O)c2ccc3c(c2)-c2ccccc2C3(F)F)c1` [Compound 253, hexyl ((E)-amino(5-((R)-1-((2S,4R)-1-((9,9-difluoro-9H-fluorene-3-carbonyl)glycyl)-4-fluoro-4-(fluoromethyl)pyrrolidine-2-carboxamido)ethyl)thiophen-3-yl)methylene)carbamate], the IC50 was less than 100 nM.
`C[C@@H](NC(=O)[C@@H]1CC2(CN1C(=O)CNC(=O)c1ccc3sc4ccccc4c3c1)OCCO2)c1cc(C(=N)N)cs1` [Compound 254, (S)—N—((R)-1-(4-carbamimidoylthiophen-2-yl)ethyl)-7-((dibenzo[b,d]thiophene-2-carbonyl)glycyl)-1,4-dioxa-7-azaspiro[4.4]nonane-8-carboxamide]: the IC50 is less than 100 nM.
For `N=C(N)c1csc(CNC(=O)[C@@H]2CC3(CN2C(=O)CN2CCc4cc(-c5ccc(F)cc5)ccc4C2=O)OCCO3)c1` [Compound 255, (S)—N-((4-carbamimidoylthiophen-2-yl)methyl)-7-(2-(6-(4-fluorophenyl)-1-oxo-3,4-dihydroisoquinolin-2(1H)-yl)acetyl)-1,4-dioxa-7-azaspiro[4.4]nonane-8-carboxamide], the IC50 was more than 1000 nM.
In the case of `N=C(N)c1csc(CNC(=O)[C@@H]2CC3(CN2C(=O)CN2CCc4cc(-c5ccccc5)ccc4C2=O)OCCO3)c1` [Compound 256, (S)—N-((4-carbamimidoylthiophen-2-yl)methyl)-7-(2-(1-oxo-6-phenyl-3,4-dihydroisoquinolin-2(1H)-yl)acetyl)-1,4-dioxa-7-azaspiro[4.4]nonane-8-carboxamide], the IC50 was less than 100 nM.
For `Cc1ccc(-c2ccc(C(=O)NCC(=O)N3CC4(C[C@H]3C(=O)NCc3cc(C(=N)N)cs3)OCCO4)cc2)c(C)c1` [Compound 257, (S)—N-((4-carbamimidoylthiophen-2-yl)methyl)-7-((2′,4′-dimethyl-[1,1′-biphenyl]-4-carbonyl)glycyl)-1,4-dioxa-7-azaspiro[4.4]nonane-8-carboxamide] the value was less than 100 nM; for `CCCCCCOC(=O)/N=C(/N)c1csc([C@@H](C)NC(=O)[C@@H]2C[C@@H](OC(F)F)CN2C(=O)CNC(=O)c2ccc3c(c2)-c2ccccc2C3(F)F)c1` [Compound 258, hexyl ((E)-amino(5-((R)-1-((2S,4R)-1-((9,9-difluoro-9H-fluorene-3-carbonyl)glycyl)-4-(difluoromethoxy)pyrrolidine-2-carboxamido)ethyl)thiophen-3-yl)methylene)carbamate], less than 100 nM.
For `C[C@@]12C[C@@H]1N(C(=O)CNC(=O)c1ccc3c(c1)-c1ccccc1C3(F)F)[C@H](C(=O)Nc1cc(C(=N)N)cs1)C2` [Compound 259, (1S,3S,5S)—N-(4-carbamimidoylthiophen-2-yl)-2-((9,9-difluoro-9H-fluorene-3-carbonyl)glycyl)-5-methyl-2-azabicyclo[3.1.0]hexane-3-carboxamide] the value was more than 1000 nM.
With `C[C@@H](NC(=O)[C@@H]1C[C@](F)(Cn2ccnn2)CN1C(=O)CNC(=O)c1ccc2c(c1)-c1ccccc1C2(F)F)c1cc(C(=N)N)cs1` [Compound 260, (2S,4R)-4-((1H-1,2,3-triazol-1-yl)methyl)-N—((R)-1-(4-carbamimidoylthiophen-2-yl)ethyl)-1-((9,9-difluoro-9H-fluorene-3-carbonyl)glycyl)-4-fluoropyrrolidine-2-carboxamide], the IC50 was less than 100 nM.
As to `C[C@@H](NC(=O)[C@@H]1CC2(CN1C(=O)CNC(=O)c1ccc3c(c1)-c1ccccc1S3(=O)=O)OCCO2)c1cc(C(=N)N)cs1` [Compound 261, (S)—N—((R)-1-(4-carbamimidoylthiophen-2-yl)ethyl)-7-((5,5-dioxidodibenzo[b,d]thiophene-2-carbonyl)glycyl)-1,4-dioxa-7-azaspiro[4.4]nonane-8-carboxamide], the IC50 was less than 100 nM.
For `C[C@@H](NC(=O)[C@@H]1C[C@@H](OC(F)F)CN1C(=O)CNC(=O)c1ccc2c(c1)C(F)(F)c1ccccc1-2)c1cc(C(=N)N)cs1` [Compound 262, (2S,4R)—N—((R)-1-(4-carbamimidoylthiophen-2-yl)ethyl)-1-((9,9-difluoro-9H-fluorene-2-carbonyl)glycyl)-4-(difluoromethoxy)pyrrolidine-2-carboxamide] the value was less than 100 nM; for `C[C@@H](NC(=O)[C@@H]1C[C@](F)(CF)CN1C(=O)CNC(=O)c1ccc2c(c1)C(F)(F)c1ccccc1-2)c1cc(C(=N)N)cs1` [Compound 263, (2S,4R)—N—((R)-1-(4-carbamimidoylthiophen-2-yl)ethyl)-1-((9,9-difluoro-9H-fluorene-2-carbonyl)glycyl)-4-fluoro-4-(fluoromethyl)pyrrolidine-2-carboxamide], less than 100 nM; for `COC[C@@]1(F)C[C@@H](C(=O)N[C@H](C)c2cc(C(=N)N)cs2)N(C(=O)CNC(=O)c2ccc3c(c2)C(F)(F)c2ccccc2-3)C1` [Compound 264, (2S,4R)—N—((R)-1-(4-carbamimidoylthiophen-2-yl)ethyl)-1-((9,9-difluoro-9H-fluorene-2-carbonyl)glycyl)-4-fluoro-4-(methoxymethyl)pyrrolidine-2-carboxamide], less than 100 nM.
With `C[C@@H](NC(=O)[C@@H]1C[C@@H](S(C)(=O)=O)CN1C(=O)CNC(=O)c1ccc2c(c1)C(F)(F)c1ccccc1-2)c1cc(C(=N)N)cs1` [Compound 265, (2S,4R)—N—((R)-1-(4-carbamimidoylthiophen-2-yl)ethyl)-1-((9,9-difluoro-9H-fluorene-2-carbonyl)glycyl)-4-(methylsulfonyl)pyrrolidine-2-carboxamide], the IC50 was less than 100 nM.
With `N=C(N)c1csc(CNC(=O)[C@@H]2CC3(CN2C(=O)CNC(=O)c2ccc(-c4ccncc4F)cc2)OCCO3)c1` [Compound 266, (S)—N-((4-carbamimidoylthiophen-2-yl)methyl)-7-((4-(3-fluoropyridin-4-yl)benzoyl)glycyl)-1,4-dioxa-7-azaspiro[4.4]nonane-8-carboxamide], the IC50 was less than 100 nM.
As to `C[C@@H](NC(=O)[C@@H]1C[C@]2(CN3CCOCC3)C[C@@H]2N1C(=O)CNC(=O)c1ccc2c(c1)-c1ccccc1C2(F)F)c1cc(C(=N)N)cs1` [Compound 267, (1S,3S,5S)—N—((R)-1-(4-carbamimidoylthiophen-2-yl)ethyl)-2-((9,9-difluoro-9H-fluorene-3-carbonyl)glycyl)-5-(morpholinomethyl)-2-azabicyclo [3.1.0]hexane-3-carboxamide], the IC50 is less than 100 nM.
